Earlier results, collected in US20060165637A1, “Topical agent containing phytanic acid or a derivative thereof” (priority 2003, published 2006).

Columns and labels:
RXR = settings: relative to retinoic acid
[1] = applied topically to the skin

SMILES | RXR binding affinity, times weaker than that of retinoic acid (RXR) [times] | conversion into phytanic acid [1]
CC(C)CCCC(C)CCCC(C)CCCC(C)CC(=O)O (centres unmarked) [Phytanic acid, 3,7,11,15-tetramethylhexadecanoic acid] | 200 | 
C/C(=C\CO)CCC[C@H](C)CCC[C@H](C)CCCC(C)C [phytol] |  | does not occur
